This experiment addresses T1, α-glucosidase (from Saccharomyces cerevisiae).
T1 construct: gene MAL12; commercial enzyme from Sigma (St. Louis, MO)
As to the kind of experiment: absorbance at […] nm, pNP-G hydrolysis. Conditions: pNP-G substrate (1 mL of 1 mM), 0.1 M PBS pH 6.9, 37°C, 10 min preincubation; mixed noncompetitive and anticompetitive. The class given is biochemical.

The structures appear in SMILES notation. ≈ marks a conversion by molar mass, not a printed value.

`Oc1cc(O)c2c(c1)O[C@H](c1ccc(O)c(O)c1)[C@@H](O)C2` [catechin] displayed an IC50 of 239.27 µg/mL (≈ 824 µM).

The values are drawn from PMC4784921, “Antioxidant Activity and α-Glucosidase Inhibitory Activities of the Polycondensate of Catechin with Glyoxylic Acid” (PLoS ONE, 2016).
